Patent US8173673B2, “Biofilm-inhibiting effect and anti-infective activity of N,C-linked aryl isoquinolines and the use thereof” (Julius-Maximilians-Universitaet Wuerzburg, priority 2006, dated 2012)
Where two headings read alike, the source gives them in different places. Values belong to the compound of their own block, whether it stands above or below them.

How the values were obtained:
Assay type in all cases: cell-based
[1] = test system: Leishmania major-promastigotes (MHOM/IL81/FE/BNI); assay: Alamar Blue activity test against Leishmania major promastigotes
Protocol: Leishmania major-promastigotes (MHOM/IL81/FE/BNI) were cultivated in blood agar-cultures at 26° C., 5% CO2, and 95% humidity. For the experiment, the promastigotes were washed twice with saline phosphate buffer (PBS) and subsequently suspended (10^8 cells/ml) in Click-RPMI-1640-medium without phenol red, spiked with 10% FCS, 2 mM L-glutamine, 1.0 mM HEPES-buffer, pH 7.2, 100 μg/ml penicillin, […] gentamycin, 7.5% NaHCO3 and 50 μM 2-mercaptoethanol (culture medium). For the determination of activity, 200 μl of the promastigote-suspension in microtiter plates were each incubated with the compounds in a geometric series of dilutions for 24 hours at 26° C., 5% CO2, and 95% humidity. Subsequently, 20 μl Alamar Blue (Trinova Biochem, Gieβen, Germany) were added to each of the microcultures, and the cultures were incubated further. Cultures that only contained medium and the compound, or only cellular suspension (without compound), served as controls. The optical density was measured after another 24 hours with an ELISA-reader at the wave lengths 550 nm and 630 nm. The IC50-values of the compounds were calculated through linear interpolation (J. Mikes, D. Steverding. Parasitol. Int. 2000, 48, 265-269).
Macrophages of the cell line J774.1 were washed and suspended in culture medium ([…]. For the test, 200 μl of the cell suspension and the compounds were pipetted in a geometric series of dilutions into cultures on microtiter plates. Following 24 hours of incubation at 37° C., 5% CO2, and 95% humidity, 20 μl Alamar Blue were added to each micro-culture, and the microtiter plate was incubated further. Micro-cultures with medium and the compound as well as micro-cultures that only contained cellular suspension (without compound), served as controls. The optical density was measured after 24, 48, and 72 hours with an ELISA-reader at the wavelengths 550 nm and 630 nm. The IC50-values of the compounds were calculated using linear interpolation. Amphotericin B served as a reference compound and positive control. […]

[2] = test system: Trypanosoma brucei brucei strain TC-221; assay: Alamar Blue anti-trypanosome test, bloodstream forms
Protocol: Bloodstream-forms of the strain TC-221 of Trypanosoma brucei brucei were cultivated in enriched Baltz-culture medium in an atmosphere von 5% CO2 at 37° C. For activity determinations, a defined number of pathogens (10^4 trypanosomes per ml) were incubated in 96-well-plates with the compounds in different concentrations for 48 to 72 hours. The effect of the drugs was quantifiable using the ED50-values with linear interpolation. The trypanocidal activity of the test compounds was determined through measuring absorption on an MR 700 microplate reader (test wavelength 550 nm, reference wavelength 630 nm) by means of Alamar Blue®, an indicator of metabolic cellular functions. The addition of the dye took place 24 hours after starting the incubation. The color change of Alamar Blue® as used in this absorption measurements is based on reduction processes involving NADH or NADH-dependent enzymes. Incubation times and the concentrations of dye as required correlate with the metabolic activities of the trypanosomes. The MIC-value (minimum inhibitory concentration) was determined microscopically through counting of living cells in Neubauer-counting chambers. Suramine Na served both as positive control and reference.
The anti-trypanosomal activities of the compounds of the general structures 1-3 were studied based on a series of examples according to the above-described methods. The therapeutic index is the ratio of the cytoxicity (J774.1 macrophages) to the activities against Trypanosoma brucei brucei.

[3] = test system: Plasmodium falciparum strain K1; assay: [3H]-hypoxanthine-inclusion-test, anti-plasmodium activity
Text: For the determination of the anti-plasmodium activities, cultures of Plasmodium falciparum strain K1 (resistant against chloroquine and pyrimethamine) were used. A modification (R. G. Ridley, W. Hofheinz, if Matile, C. Jacquet, A. Dorn, R. Masciadri, S. Jolidon, W. F. Richter, A. Guenzi, M. A. Girometta, H. Urwyler, W. Huber, S. Thaitong, W. Peters, Antimicrob. Agents Chemother. 1996, 40, 1846-1854) of the [^3H]-hypoxanthine-inclusion-test (R. E. Desjardins, C. J. Canfield, D. Haynes, J. Chulay, Antimicrob. Agents Chemother. 1979, 16, 710-718) was used. Human red blood cells infected with P. falciparum (0.3% infection) at a hematocrit of 2.5% (volume fraction of the red blood cells) in RPMI 1640 medium with the serum replacement Albumax II (5 g/L) were incubated with serial dilutions of the drugs in microtiter plates for 48 hours at 37° C. under a CO2-enriched and O2-reduced atmosphere. Then, 0.5 μCi [^3H]-hypoxanthine were added to each well of the microtiter plate, and after a further 24 hours of incubation time the wells were harvested with a Betaplate Cell Harvester onto glass fiber filters, and lysed with distilled water. The incorporation of radio-labeled hypoxanthine (which correlates with the quantity of living parasites) was determined using a scintillation counter. The IC50 value was determined from sigmoidal inhibition curves. The tests were performed in duplicate, and repeated at least once. Parasite cultures without additive served as control (100% incorporation), cultures with a dilution series of chloroquine served as positive control.
(§1) The anti-plasmodia activities of the compounds of the general structures 1-3 were studied based on a series of examples according to the above-described methods. The therapeutic index is the ratio of the IC50 values for rat myoblasts (L-6-cells=cytotoxicity) to the IC50 values for Plasmodium falciparum.

[4] = test system: rat myoblasts (L-6-cells); assay: Cytotoxicity on rat myoblasts (L-6-cells); settings: result in words
Text: as §1

[5] = Trypanosoma brucei, T. brucei brucei TC-221, after 48 h, read-out: ED50 (μM) after 48 h
[6] = Trypanosoma brucei, T. brucei brucei TC-221, after 72 h, read-out: ED50 (μM) after 72 h
[7] = P. falciparum strain K1 (resistant against chloroquine and pyrimethamine), read-out: IC50

Compound: C[C@@H]1[C@H](O)[C@@H](C)/C=C/C=C/C=C/C=C/C=C/C=C/C=C/[C@H](O[C@@H]2O[C@H](C)[C@@H](O)[C@H](N)[C@@H]2O)C[C@@H]2O[C@](O)(C[C@@H](O)C[C@@H](O)[C@H](O)CC[C@@H](O)C[C@@H](O)CC(=O)O[C@H]1C)C[C@H](O)[C@H]2C(=O)O [Amphotericin B, reference compound]
- IC50 [1]: 2.51 µM

Compound: COc1cc2c(c(OC)c1)C(C)=[N+](c1cccc3ccccc13)[C@@H](C)C2 [Compound 2a, (3S)—N,1′-naphthyl-6,8-dimethoxy-1,3-dimethyl-3,4-dihydroisoquinolinium-trifluoro-acetate]
- EC50 [2, 5]: 0.39 µM
- EC50 [2, 6]: 0.356 µM

Compound: Cc1ccc(C(=O)Nc2ccc(S(=O)(=O)O)c3cc(S(=O)(=O)O)cc(S(=O)(=O)O)c23)cc1NC(=O)c1cccc(NC(=O)Nc2cccc(C(=O)Nc3cc(C(=O)Nc4ccc(S(=O)(=O)O)c5cc(S(=O)(=O)O)cc(S(=O)(=O)O)c45)ccc3C)c2)c1 [Suramin Na, reference compound]
- EC50 ([2]; T. brucei brucei TC-221, after 48 h, read-out: ED50 (μM) after 48 h): 0.31 µM
- EC50 ([2]; T. brucei brucei TC-221, after 72 h, read-out: ED50 (μM) after 72 h): 0.32 µM

Compound: CCN(CC)CCCC(C)Nc1ccnc2cc(Cl)ccc12 (stereo not shown) [chloroquine, reference compound]
- IC50 ([3]; K1): 0.119 µM

Second part, led by results:

- IC50 [1]: 2.45 µM
Compound: COc1cc(OC)c2c(C)[n+](-c3ccc(C)cc3)c(C)cc2c1 [B]

- IC50 [1]: 0.85 µM
Compound: COc1cc(OC)c2c(C)[n+](-c3ccc(C(C)C)cc3)c(C)cc2c1 [D]

- EC50 [2, 5]: 0.383 µM
- EC50 [2, 6]: 0.323 µM
Compound: COc1cc(OC)c2c(C)[n+](-c3ccccc3OC)c(C)cc2c1 [E]

- EC50 [2, 5]: 0.325 µM
- EC50 [2, 6]: 0.311 µM
Compound: COc1ccc(-[n+]2c(C)cc3cc(OC)cc(OC)c3c2C)c(OC)c1 [F]

- IC50 [3, 7]: 0.056 µM
Compound: COc1cc(OC)c2c(C)[n+](-c3ccc(Cl)cc3)c(C)cc2c1 [G]

- IC50 [3, 7]: 0.282 µM
Compound: COc1cc(OC)c2c(C)[n+](-c3ccc(C(F)(F)F)cc3)c(C)cc2c1 [H]

- IC50 [3, 7]: 0.211 µM
Compound: COc1cc(OC)c2c(C)[n+](-c3ccc(NC(C)=O)cc3)c(C)cc2c1 [I]
- cytotoxicity [4]: without a detectable cytotoxicity
